US8350027B2, “Dual-acting pyrazole antihypertensive agents” (Theravance, Inc., priority 2009, dated 2013)

Experiments:
[1] = target: T1, human AT1 receptor (Homo sapiens, UniProt P30556); test: AT1 radioligand binding assay (displacement of [Eu]AngII); details: membranes of CHO-K1 cells expressing cloned human AT1 receptor; values given as lower bounds; read-out: AT1 pKi (converted)
T1 construct: expressed in transfected cells; host or cells: CHO-K1
T1 sequence (P30556 1-359): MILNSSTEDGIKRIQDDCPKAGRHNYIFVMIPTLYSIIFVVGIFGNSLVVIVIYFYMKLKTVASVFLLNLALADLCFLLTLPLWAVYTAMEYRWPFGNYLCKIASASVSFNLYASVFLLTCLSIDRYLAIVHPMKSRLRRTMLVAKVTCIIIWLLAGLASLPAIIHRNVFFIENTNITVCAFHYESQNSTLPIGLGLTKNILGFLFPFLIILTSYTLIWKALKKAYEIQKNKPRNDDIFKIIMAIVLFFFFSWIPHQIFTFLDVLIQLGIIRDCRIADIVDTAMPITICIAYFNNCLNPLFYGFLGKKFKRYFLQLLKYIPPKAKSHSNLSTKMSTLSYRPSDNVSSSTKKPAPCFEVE
Outline: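 Membranes from CHO-K1 cells stably expressing cloned human AT1, 0.2 μg protein, in 50 mM Tris/HCl pH 7.5, 5 mM MgCl2, 0.025% BSA. Compounds displaced [Eu]AngII over 120 min in the dark at room temperature or 37° C; filter-bound TRF read. Nonspecific binding with 10 μM angiotensin II; IC50 converted to Ki via Cheng-Prusoff, reported as pKi.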

[2] = target: T2, NEP enzyme (Homo sapiens, UniProt P08473); test: NEP enzyme inhibition assay (fluorogenic peptide substrate); assay type: biochemical; details: values given as lower bounds; * = prodrugs, may not exhibit NEP activity in an in vitro assay; read-out: NEP pIC50 (converted)
T2 construct: purchased R&D Systems, Minneapolis, Minn; 1182-ZN
Outline: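 Recombinant human NEP was run with Mca-BK2 (10 μM) at room temperature in Tris buffer with 1 μM Zn. Compounds (10 μM–20 pM, 12 points) were pre-equilibrated 10 min, then reacted 20 min and acid-stopped. Fluorescence ex 320/em 405 nm, one-site competition fit gives pIC50. Thiol compounds may be pre-treated with 400 μM TCEP.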

T2 sequence (P08473 52-750 limits assumed): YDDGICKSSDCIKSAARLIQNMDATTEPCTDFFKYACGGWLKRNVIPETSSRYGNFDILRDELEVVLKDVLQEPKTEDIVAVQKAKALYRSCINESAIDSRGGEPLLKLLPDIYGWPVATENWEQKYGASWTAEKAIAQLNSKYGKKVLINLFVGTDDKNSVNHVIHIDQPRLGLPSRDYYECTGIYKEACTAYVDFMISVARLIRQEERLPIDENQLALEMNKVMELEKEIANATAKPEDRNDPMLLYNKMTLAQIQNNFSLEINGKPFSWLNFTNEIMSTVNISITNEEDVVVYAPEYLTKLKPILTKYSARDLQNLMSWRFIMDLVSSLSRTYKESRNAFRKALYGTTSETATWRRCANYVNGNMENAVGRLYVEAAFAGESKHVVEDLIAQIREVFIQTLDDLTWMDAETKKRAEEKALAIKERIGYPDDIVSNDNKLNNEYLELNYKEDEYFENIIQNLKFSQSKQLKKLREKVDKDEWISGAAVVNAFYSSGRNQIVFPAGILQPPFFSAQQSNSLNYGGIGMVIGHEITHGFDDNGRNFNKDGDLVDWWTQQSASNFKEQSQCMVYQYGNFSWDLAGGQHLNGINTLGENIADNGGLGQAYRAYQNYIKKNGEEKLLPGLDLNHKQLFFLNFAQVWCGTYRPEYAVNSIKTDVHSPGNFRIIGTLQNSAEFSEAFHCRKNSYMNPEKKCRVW

Compound | Ki [1] | IC50 [2]
CCCc1cc(C(=O)N[C@H](Cc2ccccc2)[C@@H](O)C(=O)O)nn1Cc1ccc(-c2ccccc2S(=O)(=O)NC(=O)c2ccccn2)cc1 [Example 7-9, (2R,3R)-2-Hydroxy-4-phenyl-3-[(5-propyl-1-{2′-[(pyridine-2-carbonyl)sulfamoyl]biphenyl-4-ylmethyl}-1H-pyrazole-3-carbonyl)amino]butyric acid] | ≤ 0.01 µM | ≤ 1 µM
CCCc1cc(C(=O)N[C@@H](CC(=O)O)Cc2ccccc2C)nn1Cc1ccc(-c2ccccc2-c2nnn[nH]2)cc1 [Example 3-35, (R)-3-({5-Propyl-1-[2′-(1H-tetrazol-5-yl)biphenyl-4-ylmethyl]-1H-pyrazole-3-carbonyl}amino)-4-o-tolylbutyric acid] | ≤ 0.01 µM | ≤ 10 µM
CCCc1cc(C(=O)N[C@@H](CC(=O)O)Cc2ccccc2)nn1Cc1ccc(-c2ccccc2-c2nnn[nH]2)nc1 [Example 14-6, (R)-4-Phenyl-3-[(5-propyl-1-{6-[2-(1H-tetrazol-5-yl)-phenyl]-pyridin-3-ylmethyl}-1H-pyrazole-3-carbonyl)amino]butyric acid] | ≤ 0.01 µM | ≤ 0.1 µM
CCCc1cc(C(=O)N[C@@H](CC(=O)O)Cc2ccc(F)cc2)nn1Cc1ccc(-c2ccccc2-c2nnn[nH]2)nc1 [Example 14-13, (R)-4-(4-Fluorophenyl)-3-[(5-propyl-1-{6-[2-(1H-tetrazol-5-yl)phenyl]pyridin-3-ylmethyl}-1H-pyrazole-3-carbonyl)amino]butyric acid] | ≤ 0.01 µM | ≤ 0.1 µM
CCCc1cc(C(=O)N[C@H](Cc2ccccc2)[C@@H](O)C(=O)O)nn1Cc1ccc(-c2ccccc2S(=O)(=O)NC(=O)OC)cc1 [Example 5, (2R,3R)-2-hydroxy-3-(1-((2′-(N-(methoxycarbonyl)-sulfamoyl)biphenyl-4-yl)methyl)-5-propyl-1H-pyrazole-3-carboxamido)-4-phenylbutanoic Acid] | ≤ 0.01 µM | ≤ 0.1 µM
CCCc1cc(C(=O)N[C@H](Cc2ccccc2)[C@@H](O)C(=O)O)nn1Cc1ccc(-c2ccccc2S(=O)(=O)NC(=O)C(C)(C)O)cc1 [Example 7-14, (2R,3R)-2-Hydroxy-3-({1-[2′-(2-hydroxy-2-methylpropionylsulfamoyl)biphenyl-4-ylmethyl]-5-propyl-1H-pyrazole-3-carbonyl}amino)-4-phenylbutyric acid] | ≤ 0.01 µM | ≤ 0.1 µM
CCCc1cc(C(=O)N[C@@H](CC(=O)O)Cc2ccccc2C(F)(F)F)nn1Cc1ccc(-c2ccccc2-c2nnn[nH]2)nc1 [Example 11, (R)-3-[(5-Propyl-1-{6-[2-(1H-tetrazol-5-yl)-phenyl]-pyridin-3-ylmethyl}-1H-pyrazole-3-carbonyl)-amino]-4-(2-trifluoromethylphenyl)butyric Acid] | ≤ 0.01 µM | ≤ 0.1 µM
CCCCc1cc(C(=O)N[C@H](Cc2ccccc2)[C@@H](O)C(=O)O)nn1Cc1ccc(-c2ccccc2S(=O)(=O)NC(C)=O)cc1F [Example 6-11, (2R,3R)-3-{[1-(2′-Acetylsulfamoyl-3-fluorobiphenyl-4-ylmethyl)-5-butyl-1H-pyrazole-3-carbonyl]amino}-2-hydroxy-4-phenylbutyric acid] | ≤ 0.01 µM | ≤ 1 µM
CCCc1cc(C(=O)N[C@@H](CC(=O)O)Cc2ccccc2Br)nn1Cc1ccc(-c2ccccc2S(=O)(=O)NC(C)=O)cc1 [Example 6-8, (R)-3-{[1-(2′-Acetylsulfamoylbiphenyl-4-ylmethyl)-5-propyl-1H-pyrazole-3-carbonyl]amino}-4-(2-bromophenyl)butyric acid] | ≤ 0.01 µM | ≤ 1 µM
CCCc1cc(C(=O)N[C@H](Cc2ccccc2)[C@@H](O)C(=O)O)nn1Cc1ccc(-c2ccccc2S(=O)(=O)NC(C)=O)cc1F [Example 6-14, (2R,3R)-3-(1-((2′-(N-acetylsulfamoyl)-3-fluorobiphenyl-4-yl)methyl)-5-propyl-1H-pyrazole-3-carboxamido)-2-hydroxy-4-phenylbutanoic acid] | ≤ 0.01 µM | ≤ 0.1 µM
CCCc1cc(C(=O)N[C@H](Cc2ccccc2)[C@@H](O)C(=O)O)nn1Cc1ccc(-c2ccccc2S(=O)(=O)NC(=O)CC)cc1 [Example 7-10, (2R,3R)-2-Hydroxy-4-phenyl-3-{[1-(2′-propionylsulfamoylbiphenyl-4-ylmethyl)-5-propyl-1H-pyrazole-3-carbonyl]amino}butyric acid] | ≤ 0.01 µM | ≤ 0.1 µM
CCCc1cc(C(=O)N[C@@H](CC(=O)O)Cc2cccc(F)c2)nn1Cc1ccc(-c2ccccc2-c2nnn[nH]2)nc1 [Example 14-12, (R)-4-(3-Fluorophenyl)-3-[(5-propyl-1-{6-[2-(1H-tetrazol-5-yl)phenyl]pyridin-3-ylmethyl}-1H-pyrazole-3-carbonyl)amino]butyric acid] | ≤ 0.01 µM | ≤ 0.1 µM
CCOc1cc(C(=O)N[C@H](Cc2ccccc2)[C@@H](O)C(=O)O)nn1Cc1ccc(-c2ccccc2-c2nnn[nH]2)cc1F [Example 3-8, (2R,3R)-3-({5-Ethoxy-1-[3-fluoro-2′-(1H-tetrazol-5-yl)biphenyl-4-ylmethyl]-1H-pyrazole-3-carbonyl}amino)-2-hydroxy-4-phenylbutyric acid] | ≤ 0.1 µM | ≤ 1 µM
CCCc1cc(C(=O)N[C@H](Cc2ccccc2)[C@@H](O)C(=O)O)nn1Cc1ccc(-c2ccccc2S(=O)(=O)NC(=O)[C@H](C)O)cc1 [Example 7-13, (2R,3R)-2-Hydroxy-3-({1-[2′-((S)-2-hydroxypropionylsulfamoyl)biphenyl-4-ylmethyl]-5-propyl-1H-pyrazole-3-carbonyl}amino)-4-phenylbutyric acid] | ≤ 0.01 µM | ≤ 0.1 µM
CCCc1cc(C(=O)N[C@H](CC(C)C)[C@@H](O)C(=O)O)nn1Cc1ccc(-c2ccccc2-c2nnn[nH]2)nc1 [Example 14-8, (2R,3R)-2-Hydroxy-5-methyl-3-[(5-propyl-1-{6-[2-(1H-tetrazol-5-yl)phenyl]pyridin-3-ylmethyl}-1H-pyrazole-3-carbonyl)amino]hexanoic acid] | ≤ 0.01 µM | ≤ 1 µM
CCCc1cc(C(=O)N[C@@H](CC(=O)O)Cc2ccccc2)nn1Cc1cnc(-c2ccccc2S(=O)(=O)NC(C)=O)cn1 [Example 17-4, (R)-3-({1-[5-(2-Acetylsulfamoylphenyl)pyrazin-2-ylmethyl]-5-propyl-1H-pyrazole-3-carbonyl}amino)-4-phenylbutyric acid] | ≤ 0.01 µM | ≤ 1 µM
CCc1cc(C(=O)N[C@H](Cc2ccccc2)[C@@H](O)C(=O)O)nn1Cc1ccc(-c2ccccc2-c2nnn[nH]2)cc1F [Example 3-37, (2R,3R)-3-({5-Ethyl-1-[3-fluoro-2′-(1H-tetrazol-5-yl)-biphenyl-4-ylmethyl]-1H-pyrazole-3-carbonyl}amino)-2-hydroxy-4-phenylbutyric acid] | ≤ 0.1 µM | ≤ 10 µM
CCCc1cc(C(=O)N[C@@H](CS)Cc2ccccc2)nn1Cc1ccc(-c2ccccc2C(=O)O)cc1F [Example 8, 4′-[3-((R)-1-Benzyl-2-mercaptoethylcarbamoyl)-5-propylpyrazol-1-ylmethyl]-3′-fluorobiphenyl-2-carboxylic acid] | ≤ 0.1 µM | ≤ 0.1 µM
CCCc1cc(C(=O)N[C@H](Cc2ccccc2)[C@@H](O)C(=O)O)nn1Cc1ccc(-c2ccccc2S(=O)(=O)NC(=O)NCC)cc1 [Example 7-1, (2R,3R)-3-(1-((2′(N-(ethylcarbamoyl)sulfamoyl)biphenyl-4-yl)methyl)-5-propyl-1H-pyrazole-3-carboxamido)-2-hydroxy-4-phenylbutanoic acid] | ≤ 0.01 µM | ≤ 1 µM
CCCc1cc(C(=O)N[C@H](Cc2ccccc2)[C@@H](O)C(=O)O)nn1Cc1ccc(-c2ccccc2S(=O)(=O)NC(=O)OCC)cc1 [Example 7-7, (2R,3R)-3-(1-((2′-(N-(ethoxycarbonyl)sulfamoyl)biphenyl-4-yl)methyl)-5-propyl-1H-pyrazole-3-carboxamido)-2-hydroxy-4-phenylbutanoic acid] | ≤ 0.01 µM | ≤ 1 µM
CCCc1cc(C(=O)N[C@H](Cc2ccccc2)[C@@H](O)C(=O)O)nn1Cc1ccc(-c2ccccc2-c2nc(=O)o[nH]2)cc1 [Example 16-2, (2R,3R)-2-Hydroxy-3-({1-[2′-(5-oxo-2,5-dihydro-[1,2,4]oxadiazol-3-yl)biphenyl-4-ylmethyl]-5-propyl-1H-pyrazole-3-carbonyl}amino)-4-phenylbutyric acid] | ≤ 0.01 µM | ≤ 1 µM
CCCc1cc(C(=O)N[C@H](Cc2ccccc2)[C@@H](O)C(=O)O)nn1Cc1ccc(-c2ccccc2S(=O)(=O)NC(=O)c2ccno2)cc1 [Example 7-6, (2R,3R)-2-Hydroxy-3-[(1-{2′-[(isoxazole-5-carbonyl)sulfamoyl]biphenyl-4-ylmethyl}-5-propyl-1H-pyrazole-3-carbonyl)amino]-4-phenylbutyric acid] | ≤ 0.01 µM | ≤ 1 µM
